Changes are numbered by the printed parent chain. “Also recorded” adds a separate entry of the source.
Legend:
[1] = target: T1, human CCK-B/gastrin receptor (wild-type) (Homo sapiens, UniProt P32239); test: Total inositol phosphate production, COS-7 cells expressing wild-type receptor; type: cell-based; conditions: for IC50: 95% C.I. in brackets, read-out: Wild-type receptor IC50(nM) 95% C.I., signaling potency
T1 construct: expressed in transfected cells; host or cells: COS-7
T1 sequence (P32239 1-447): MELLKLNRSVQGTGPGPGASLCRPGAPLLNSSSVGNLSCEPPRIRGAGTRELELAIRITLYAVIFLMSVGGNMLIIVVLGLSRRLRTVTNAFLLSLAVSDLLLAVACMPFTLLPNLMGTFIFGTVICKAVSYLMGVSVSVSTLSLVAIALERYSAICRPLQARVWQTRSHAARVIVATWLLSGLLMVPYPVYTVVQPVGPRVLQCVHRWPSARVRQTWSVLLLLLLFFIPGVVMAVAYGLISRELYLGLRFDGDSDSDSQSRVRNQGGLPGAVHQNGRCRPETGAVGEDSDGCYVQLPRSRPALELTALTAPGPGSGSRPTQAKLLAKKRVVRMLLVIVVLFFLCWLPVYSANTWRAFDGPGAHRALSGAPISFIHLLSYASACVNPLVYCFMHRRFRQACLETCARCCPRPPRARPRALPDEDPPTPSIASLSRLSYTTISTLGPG

[2] = target: T2, human CCK-B/gastrin receptor 325L→E mutant (Homo sapiens, UniProt P32239, L325E); test: Total inositol phosphate production, COS-7 cells expressing constitutively active mutant; type: cell-based; conditions: for IC50: 325L→E mutant, 95% C.I. in brackets, read-out: 325L→E Mutant IC50(nM) 95% C.I., signaling potency; for intrinsic activity / functional classification: constitutively active 325L→E mutant
T2 construct: expressed in transfected cells; host or cells: COS-7
T2 sequence (P32239 1-447 L325E): T1 sequence (P32239 1-447) with L325E

[3] = target: T2, human CCK-B/gastrin receptor 325L→E mutant; test: 125I-CCK-8 competition binding, COS-7 cells expressing constitutively active mutant; conditions: read-out: 325L→E Mutant Ki(nM), 125I CCK-8 binding affinity
Procedure: (§1) The binding of a ligand to a CCK receptor, e.g., the CCK-A or the CCK-B/gastrin receptor, can be measured according to the following example. In this example, the binding affinity of a ligand to the human CCK-B/gastrin receptor is measured.
Twenty-four hours after transfection cells were split into 24-well dishes (2×10^4 cells/well) (Costar). After an additional 24 hours, competition binding experiments were performed in Hank's buffer supplemented with 25 mM phenylmethylsulfonyl fluoride (PMSF). […] Equilibrium binding occurred after incubation for 80 min. at 37° C. Cell monolayers were then washed three times, hydrolyzed in 1 N NaOH, and the amount of radioactivity to the receptor was quantified. […] All binding experiments were repeated three to five times.
(§2) The competition data were analyzed using computer software which is specifically designed for the purpose of radioligand binding assays (Inplot 4.0, GraphPad, San Diego, Calif.).

[4] = target: T1, human CCK-B/gastrin receptor (wild-type); test: 125I-CCK-8 competition binding, COS-7 cells expressing wild-type receptor; conditions: for Ratio (Wild-type/Mutant) of Ki: binding affinities; for Ki: wild-type receptor, read-out: Wild-type receptor Ki(nM), 125I CCK-8 binding affinity
Procedure: as §1
Twenty-four hours after transfection cells were split into 24-well dishes (2×10^4 cells/well) (Costar). After an additional 24 hours, competition binding experiments were performed in Hank's buffer supplemented with 25 mM phenylmethylsulfonyl fluoride (PMSF). […] Equilibrium binding occurred after incubation for 80 min. at 37° C. Cell monolayers were then washed three times, hydrolyzed in 1 N NaOH, and the amount of radioactivity to the receptor was quantified.
as §2

[5] = target: T3, mutant human CCK-A receptor pMHA35 (Homo sapiens, UniProt P32238, E138Q); test: Intrinsic activity at mutant CCK-A receptor pMHA35 (138-ERY-140 to QRY); type: cell-based; conditions: basal signaling not increased
T3 construct: expressed in transfected cells; host or cells: COS-7 (inferred from the general inositol phosphate method)
T3 sequence (P32238 1-428 E138Q): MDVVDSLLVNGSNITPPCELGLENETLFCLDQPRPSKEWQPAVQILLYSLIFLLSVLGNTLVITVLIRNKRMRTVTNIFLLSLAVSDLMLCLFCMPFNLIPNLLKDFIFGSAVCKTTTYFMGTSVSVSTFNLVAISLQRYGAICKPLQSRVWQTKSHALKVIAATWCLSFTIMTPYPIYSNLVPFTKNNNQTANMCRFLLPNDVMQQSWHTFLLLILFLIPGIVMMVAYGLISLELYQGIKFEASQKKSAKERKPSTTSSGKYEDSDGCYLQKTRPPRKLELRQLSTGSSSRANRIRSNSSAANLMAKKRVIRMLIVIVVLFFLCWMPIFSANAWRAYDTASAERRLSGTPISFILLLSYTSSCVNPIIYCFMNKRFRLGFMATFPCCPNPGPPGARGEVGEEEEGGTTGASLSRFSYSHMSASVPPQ
Description: An example is given of a mutant human CCK-A receptor that enhances the intrinsic activity of the partial ‘peptoid’ agonist PD 135,158, yet causes no apparent increase in agonist-independent basal receptor activity, is the mutant CCK-A receptor pMHA35. pMHA35 was made by replacing amino acids 138-ERY-140 of the human wild-type CCK-A receptor with QRY in the vector pcDNAI. (See FIG. 2 for an illustration of the wild-type CCK-A receptor amino acid sequence.)
This method, based on alignment, was employed to construct a CCK-A mutant receptor. A multiple alignment map was made which included the human and rat CCK-A sequences, the mastomys, rat, human, and canine CCK-B/gastrin receptor, and a Xenopus CCK-A/CCK-B intermediate receptor (CCK-XL; FIG. 2). Based on this map, conserved amino acids 138-ERY-140 of the CCK-A receptor were replaced with amino acids QRY, based on a known constitutively active rhodopsin mutant with enhanced transducin activation (Arnis et al., J. Biol. Chem., 269:23879-81, 1994). The altered amino acid residues are positioned in transmembrane domain III and flank the second intracellular loop.

[6] = target: human wild-type CCK-B receptor (Homo sapiens, UniProt P32239); conditions: 10^-7 M
Procedure: Measurement of [Ca^2+]: Forty-eight hours after transfection with hCCKB-pcDNAI, COS-7 cells were loaded with the Ca^2+ fluorophore fura-2 in modified Krebs-Ringer bicarbonate buffer. […] Extracellular calcium can be chelated with EGTA (2.5 mM) to confirm that a gastrin-induced increase in [Ca^2+] originates primarily from intracellular [Ca^2+] pools.

Xenopus CCK receptor = Xenopus CCK receptor (Xenopus laevis, UniProt P70031); conditions: single experiment
Procedure: COS-7 cells transfected with receptor cDNA-pcDNAI were cultured in inositol-free, serum-free Dulbecco's modified Eagle's medium (DMEM, GIBCO), supplemented with 3 μCi/ml ^3 H-myo-inositol (NEN, 45-80 Ci/mmol), for 18 hours prior to analysis. The cells were then washed twice with DMEM/10 mM LiCl2 and twice with phosphate-buffered saline/10 mM LiCl2. After stimulation with putative agonists in phosphate-buffered saline 10/mM LiCl2 for 30 minutes at 37° C., cells were scraped in ice-cold methanol. […] The upper phase was analyzed for inositol phosphates by strong anion exchange chromatography, using Dowex 1-X8 columns (BIORAD) and differential elution with water/60 mM ammonium fornate/2 M ammonium fornate. Eluted radioactivity was measured by liquid scintillation counting, and inositol phosphate content was expressed as a percentage of total ^3H-radioactivity applied to the columns.
In FIG. 11, basal levels of inositol phosphate production were measured for human CCK-A hCCK-A), human CCK-B (hCCK-B), dog CCK-B (dCCK-B), mouse CCK-B (mCCK-B), and the mastomys CCK receptor (FIG. 11, part A), and expressed relative to the basal level of hCCK-B.
Single experiments were also performed for the rat CCK-B/gastrin receptor and for the related Xenopus CCK receptor (Table 2).

rat CCK-A = conditions: single experiment

Xenopus CCK receptor, sequence (P70031 whole entry): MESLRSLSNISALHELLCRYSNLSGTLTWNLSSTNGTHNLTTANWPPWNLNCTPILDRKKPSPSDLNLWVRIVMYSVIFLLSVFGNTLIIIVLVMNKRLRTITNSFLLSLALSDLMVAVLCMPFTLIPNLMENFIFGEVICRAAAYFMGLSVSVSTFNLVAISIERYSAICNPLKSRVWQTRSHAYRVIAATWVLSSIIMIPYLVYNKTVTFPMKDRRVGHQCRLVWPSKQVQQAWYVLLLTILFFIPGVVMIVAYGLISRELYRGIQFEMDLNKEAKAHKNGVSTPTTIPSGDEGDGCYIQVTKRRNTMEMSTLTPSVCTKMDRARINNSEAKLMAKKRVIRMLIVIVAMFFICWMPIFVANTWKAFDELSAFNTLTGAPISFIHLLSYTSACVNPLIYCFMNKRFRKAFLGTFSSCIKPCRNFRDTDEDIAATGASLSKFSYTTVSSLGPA

Compound	intrinsic activity / functional classification ([1]; wild-type receptor)	Ki [3] [nM]	Ratio (Wild-type/Mutant) of Ki [4]	Ki [4] [nM]	intrinsic activity / functional classification [2]	other results
Cc1cccc(NC(=O)N[C@@H]2N=C(c3ccccc3)c3ccccc3N(C)C2=O)c1 [L-365,260]	barely detectable, yet significant, increase in inositol phosphate production	–	–	–	–	efficacy compared to the full agonist CCK-8s (inositol phosphate) ([2]; 325L→E constitutively active mutant): 62%
CC1(C)[C@H]2CC[C@@]1(C)[C@H](OC(=O)N[C@](C)(Cc1c[nH]c3ccccc13)C(=O)NC[C@H](NC(=O)CCC(=O)O)c1ccccc1)C2 [PD 135,158]	partial agonists	1.01 ± 0.19	2.23	2.25 ± 0.61	almost full agonists	Ratio (Wild-type/Mutant) of signaling potencies [1]: 1.04; IC50 ([1]; wild-type receptor): 1.05 nM; intrinsic activity at mutant versus wild-type CCK-A receptor [5]: significantly increased; IC50 [2]: 1.01 nM
C[C@](Cc1c[nH]c2ccccc12)(NC(=O)OC1C2CC3CC(C2)CC1C3)C(=O)NC[C@H](NC(=O)/C=C/C(=O)O)c1ccccc1 (stereo partly drawn) [PD 136,450]	partial agonists	0.59 ± 0.12	1.68	0.99 ± 0.1	almost full agonists	Ratio (Wild-type/Mutant) of signaling potencies [1]: 0.62; IC50 ([1]; wild-type receptor): 0.36 nM; IC50 [2]: 0.58 nM
Cc1cccc(NC(=O)N[C@@H]2N=C(c3ccccc3)c3ccccc3N(CC(=O)c3ccccc3C)C2=O)c1 [YM022]	almost no intrinsic activity	0.08 ± 0.01	0.88	0.07 ± 0.01	almost no intrinsic activity; also recorded: weak inverse agonist	pA2, block of CCK-8s induced inositol phosphate production ([1]; wild-type receptor, agonist CCK-8s): 9.78; pA2, block of CCK-8s induced inositol phosphate production ([2]; constitutively active receptor, agonist CCK-8s): 9.37; pA2, block of L-740,093 S induced inositol phosphate production ([2]; constitutively active receptor, agonist L-740,093 S (FIG. 4)): 9.54
CCK-8s	–	–	–	–	–	change in free cytosolic calcium [Ca2+]i [6]: marked increase in free cytosolic calcium; CCK-8s stimulated (% human basal) inositol phosphate (Xenopus CCK receptor): 442 % human basal; CCK-8s stimulated (% human basal) inositol phosphate (rat CCK-A): 684 % human basal
azabicyclo[3.2.2]nonane benzodiazepine [L-740,093 R]	–	0.18 ± 0.04	1.06	0.19 ± 0.02	reduces the basal activity of the constitutively active receptor almost to wild-type levels	–
azabicyclo[3.2.2]nonane benzodiazepine [L-740,093 S]	–	16 ± 1.4	1.22	19.5 ± 1.5	almost a full agonist	efficacy compared with CCK-8s (inositol phosphate) ([1]; human wild-type receptor): 25%
